Results from US7750003B2, “Compounds-943” (AstraZeneca AB, priority 2006, dated 2010).

What follows are compounds tested against recombinant mTOR (FLAG-tagged, residues 1362-2549) (Homo sapiens, UniProt P42345) (assay: In vitro mTOR kinase assay (Test (a), AlphaScreen)). Settings: ATP 20 μM, read-out: Test (a): IC50 versus mTOR kinase.
Chain of recombinant mTOR (FLAG-tagged, residues 1362-2549) (P42345 1362-2549): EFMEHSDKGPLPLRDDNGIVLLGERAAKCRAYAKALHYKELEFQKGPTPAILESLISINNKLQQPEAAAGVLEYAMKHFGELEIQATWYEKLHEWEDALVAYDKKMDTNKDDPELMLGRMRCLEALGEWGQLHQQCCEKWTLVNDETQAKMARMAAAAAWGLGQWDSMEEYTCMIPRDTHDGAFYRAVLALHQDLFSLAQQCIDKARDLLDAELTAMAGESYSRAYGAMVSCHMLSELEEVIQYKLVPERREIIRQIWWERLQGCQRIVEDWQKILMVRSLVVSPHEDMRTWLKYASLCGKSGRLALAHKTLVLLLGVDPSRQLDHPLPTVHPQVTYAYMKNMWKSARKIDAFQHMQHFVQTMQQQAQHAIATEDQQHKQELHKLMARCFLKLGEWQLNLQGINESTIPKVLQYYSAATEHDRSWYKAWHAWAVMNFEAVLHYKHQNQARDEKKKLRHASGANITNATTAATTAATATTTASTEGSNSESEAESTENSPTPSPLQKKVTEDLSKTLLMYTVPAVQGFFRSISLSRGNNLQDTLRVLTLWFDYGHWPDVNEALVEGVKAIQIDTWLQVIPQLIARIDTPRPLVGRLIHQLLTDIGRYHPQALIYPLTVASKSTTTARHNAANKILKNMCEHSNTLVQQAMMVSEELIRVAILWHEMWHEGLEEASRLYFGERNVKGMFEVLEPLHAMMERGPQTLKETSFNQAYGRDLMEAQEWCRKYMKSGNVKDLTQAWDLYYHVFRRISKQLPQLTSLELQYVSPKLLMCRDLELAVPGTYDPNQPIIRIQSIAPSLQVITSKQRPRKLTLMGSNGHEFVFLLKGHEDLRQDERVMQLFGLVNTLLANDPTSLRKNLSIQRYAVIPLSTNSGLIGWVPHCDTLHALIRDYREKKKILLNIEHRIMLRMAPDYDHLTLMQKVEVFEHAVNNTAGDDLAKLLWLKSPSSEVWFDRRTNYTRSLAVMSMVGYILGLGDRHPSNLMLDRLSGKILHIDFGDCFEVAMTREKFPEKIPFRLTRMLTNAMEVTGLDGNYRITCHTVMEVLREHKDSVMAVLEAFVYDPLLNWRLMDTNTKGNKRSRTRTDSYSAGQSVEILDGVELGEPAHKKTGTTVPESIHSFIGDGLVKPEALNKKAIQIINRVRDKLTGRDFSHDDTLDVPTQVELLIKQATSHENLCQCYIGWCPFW
Assay type: biochemical
Method in brief: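 AlphaScreen read-out: a phospho-T389 p70 S6K antibody on acceptor beads captures the phosphorylated biotin-peptide on donor beads, with signal loss indicating inhibition.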
CS(=O)(=O)Cc1cc(N2CCOCC2)nc(-c2ccc(NC(=O)NC3CCOCC3)cc2)n1 [Example 45u, 1-[4-[4-(methylsulfonylmethyl)-6-morpholin-4-yl-pyrimidin-2-yl]phenyl]-3-(oxan-4-yl)urea] was tested, and the IC50 was 420 nM. CS(=O)(=O)Cc1cc(N2CCOCC2)nc(-c2ccc(NC(=O)N3CCNC(=O)C3)cc2)n1 [Example 45v, [4-[4-(methylsulfonylmethyl)-6-morpholin-4-yl-pyrimidin-2-yl]phenyl]-3-oxo-piperazine-1-carboxamide] showed an IC50 of 1200 nM. CN1CCN(CCNC(=O)Nc2ccc(-c3nc(CS(C)(=O)=O)cc(N4CCOCC4)n3)cc2)CC1 [Example 45w, 1-[2-(4-methylpiperazin-1-yl)ethyl]-3-[4-[4-(methylsulfonylmethyl)-6-morpholin-4-yl-pyrimidin-2-yl]phenyl]urea] gave an IC50 of 740 nM. With CN(CCS(C)(=O)=O)C(=O)Nc1ccc(-c2nc(CS(C)(=O)=O)cc(N3CCOCC3)n2)cc1 [Example 45x, 1-methyl-1-(2-methylsulfonylethyl)-3-[4-[4-(methylsulfonylmethyl)-6-morpholin-4-yl-pyrimidin-2-yl]phenyl]urea] the IC50 was 1100 nM. Compound CNC(=O)C1CCN(C(=O)Nc2ccc(-c3nc(CS(C)(=O)=O)cc(N4CCOCC4)n3)cc2)CC1 [Example 45y, N′-methyl-N-[4-[4-(methylsulfonylmethyl)-6-morpholin-4-yl-pyrimidin-2-yl]phenyl]piperidine-1,4-dicarboxamide] has an IC50 of 1200 nM. CN(C)C(=O)CNC(=O)Nc1ccc(-c2nc(CS(C)(=O)=O)cc(N3CCOCC3)n2)cc1 [Example 45z, N,N-dimethyl-2-[[4-[4-(methylsulfonylmethyl)-6-morpholin-4-yl-pyrimidin-2-yl]phenyl]carbamoylamino] acetamide] showed an IC50 of 1000 nM. CNC(=O)Nc1ncc(-c2nc(CS(C)(=O)=O)cc(N3CCOC[C@@H]3C)n2)s1 [Example 46, 3-Methyl-1-[5-[4-[(3S)-3-methylmorpholin-4-yl]-6-(methylsulfonylmethyl)pyrimidin-2-yl]-1,3-thiazol-2-yl]urea] showed an IC50 of 140 nM. Work on CC(C)NC(=O)Nc1ncc(-c2nc(CS(C)(=O)=O)cc(N3CCOC[C@@H]3C)n2)s1 [Example 46a, 1-[5-[4-[(3S)-3-methylmorpholin-4-yl]-6-(methylsulfonylmethyl)pyrimidin-2-yl]-1,3-thiazol-2-yl]-3-propan-2-yl-urea] yielded an IC50 of 350 nM. With CCNC(=O)Nc1ncc(-c2nc(CS(C)(=O)=O)cc(N3CCOC[C@@H]3C)n2)s1 [Example 46b, 1-ethyl-3-[5-[4-[(3S)-3-methylmorpholin-4-yl]-6-(methylsulfonylmethyl)pyrimidin-2-yl]-1,3-thiazol-2-yl]urea] the IC50 was 6.1 nM. With C[C@H]1COCCN1c1cc(CS(C)(=O)=O)nc(-c2cnc(NC(=O)Nc3ccccc3)s2)n1 [Example 46c, 1-[5-[4-[(3S)-3-methylmorpholin-4-yl]-6-(methylsulfonylmethyl)pyrimidin-2-yl]-1,3-thiazol-2-yl]-3-phenyl-urea] the IC50 was 450 nM. Work on C[C@H]1COCCN1c1cc(CS(C)(=O)=O)nc(-c2cnc(NC(=O)Nc3ccc(F)cc3)s2)n1 [Example 46d, 3-(4-fluorophenyl)-1-[5-[4-[(3S)-3-methylmorpholin-4-yl]-6-(methylsulfonylmethyl)pyrimidin-2-yl]-1,3-thiazol-2-yl]urea] yielded an IC50 of 850 nM. C[C@H]1COCCN1c1cc(CS(C)(=O)=O)nc(-c2cnc(NC(=O)N(C)C3CC3)s2)n1 [Example 46e, 1-cyclopropyl-1-methyl-3-[5-[4-[(3S)-3-methylmorpholin-4-yl]-6-(methylsulfonylmethyl)pyrimidin-2-yl]-1,3-thiazol-2-yl]urea] showed an IC50 of 710 nM. With COc1ccc(NC(=O)Nc2ncc(-c3nc(CS(C)(=O)=O)cc(N4CCOC[C@@H]4C)n3)s2)cc1 [Example 46f, 3-(4-methoxyphenyl)-1-[5-[4-[(3S)-3-methylmorpholin-4-yl]-6-(methylsulfonylmethyl)pyrimidin-2-yl]-1,3-thiazol-2-yl]urea] the IC50 was 1200 nM. With C[C@H]1COCCN1c1cc(CS(C)(=O)=O)nc(-c2cnc(NC(=O)NCCN(C)C)s2)n1 [Example 46g, 3-(2-dimethylaminoethyl)-1-[5-[4-[(3S)-3-methylmorpholin-4-yl]-6-(methylsulfonylmethyl)pyrimidin-2-yl]-1,3-thiazol-2-yl]urea] the IC50 was 730 nM. In the case of C[C@H]1COCCN1c1cc(CS(C)(=O)=O)nc(-c2cnc(NC(=O)Nc3cnn(C)c3)s2)n1 [Example 46h, 1-[5-[4-[(3S)-3-methylmorpholin-4-yl]-6-(methylsulfonylmethyl)pyrimidin-2-yl]-1,3-thiazol-2-yl]-3-(1-methylpyrazol-4-yl)urea], the IC50 is reported as 63 nM. Work on C[C@H]1COCCN1c1cc(CS(C)(=O)=O)nc(-c2cnc(NC(=O)NC3CC3)s2)n1 [Example 46i, 3-cyclopropyl-1-[5-[4-[(3S)-3-methylmorpholin-4-yl]-6-(methylsulfonylmethyl)pyrimidin-2-yl]-1,3-thiazol-2-yl]urea] yielded an IC50 of 97 nM. CNC(=O)Nc1ncc(-c2nc(N3CCOC[C@@H]3C)cc(C(C)(C)S(C)(=O)=O)n2)s1 [Example 47, 3-Methyl-1-[5-[4-[(3S)-3-methylmorpholin-4-yl]-6-(2-methylsulfonylpropan-2-yl)pyrimidin-2-yl]-1,3-thiazol-2-yl]urea] was tested, and the IC50 was 260 nM. C[C@H]1COCCN1c1cc(C(C)(C)S(C)(=O)=O)nc(-c2cnc(NC(=O)NC3CC3)s2)n1 [Example 47a, 3-cyclopropyl-1-[5-[4-[(3S)-3-methylmorpholin-4-yl]-6-(2-methylsulfonylpropan-2-yl)pyrimidin-2-yl]-1,3-thiazol-2-yl]urea] was tested, and the IC50 was 1200 nM. With C[C@H]1COCCN1c1cc(C(C)(C)S(C)(=O)=O)nc(-c2cnc(NC(=O)Nc3cnn(C)c3)s2)n1 [Example 47b, 1-[5-[4-[(3S)-3-methylmorpholin-4-yl]-6-(2-methylsulfonylpropan-2-yl)pyrimidin-2-yl]-1,3-thiazol-2-yl]-3-(1-methylpyrazol-4-yl)urea] the IC50 was 410 nM. Work on C[C@H]1COCCN1c1cc(C(C)(C)S(C)(=O)=O)nc(-c2cnc(NC(=O)NCc3cnn(C)c3)s2)n1 [Example 47c, 1-[5-[4-[(3S)-3-methylmorpholin-4-yl]-6-(2-methylsulfonylpropan-2-yl)pyrimidin-2-yl]-1,3-thiazol-2-yl]-3-[(1-methylpyrazol-4-yl)methyl]urea] yielded an IC50 of 1400 nM. With CCNC(=O)Nc1ncc(-c2nc(N3CCOC[C@@H]3C)cc(C(C)(C)S(C)(=O)=O)n2)s1 [Example 47d, 1-ethyl-3-[5-[4-[(3S)-3-methylmorpholin-4-yl]-6-(2-methylsulfonylpropan-2-yl)pyrimidin-2-yl]-1,3-thiazol-2-yl]urea] the IC50 was 970 nM. C[C@H]1COCCN1c1cc(CNC2CC2)nc(-c2ccc(NC(=O)NC3CC3)cc2)n1 [Example 49, 3-Cyclopropyl-1-[4-[4-[(cyclopropylamino)methyl]-6-[(3S)-3-methylmorpholin-4-yl]pyrimidin-2-yl]phenyl]urea] showed an IC50 of 33 nM. Work on C[C@H]1COCCN1c1cc(CN(C)CCO)nc(-c2ccc(NC(=O)NC3CC3)cc2)n1 [Example 49a, 3-cyclopropyl-1-[4-[4-[(2-hydroxyethyl-methyl-amino)methyl]-6-[(3S)-3-methylmorpholin-4-yl]pyrimidin-2-yl]phenyl]urea] yielded an IC50 of 150 nM. C[C@H]1COCCN1c1cc(CN2CCN(C)CC2)nc(-c2ccc(NC(=O)NC3CC3)cc2)n1 [Example 49b, 3-cyclopropyl-1-[4-[4-[(3S)-3-methylmorpholin-4-yl]-6-[(4-methylpiperazin-1-yl)methyl]pyrimidin-2-yl]phenyl]urea] was tested, and the IC50 was 14 nM. Compound COCCNCc1cc(N2CCOC[C@@H]2C)nc(-c2ccc(NC(=O)NC3CC3)cc2)n1 [Example 49c, 3-cyclopropyl-1-[4-[4-[(2-methoxyethylamino)methyl]-6-[(3S)-3-methylmorpholin-4-yl]pyrimidin-2-yl]phenyl]urea] has an IC50 of 40 nM. C[C@H]1COCCN1c1cc(CNCCCN(C)C)nc(-c2ccc(NC(=O)NC3CC3)cc2)n1 [Example 49e, 3-cyclopropyl-1-[4-[4-[(3-dimethylaminopropylamino)methyl]-6-[(3S)-3-methylmorpholin-4-yl]pyrimidin-2-yl]phenyl]urea] gave an IC50 of 32 nM. With C[C@H]1COCCN1c1cc(CN2CCOCC2)nc(-c2ccc(NC(=O)NC3CC3)cc2)n1 [Example 49f, 3-cyclopropyl-1-[4-[4-[(3S)-3-methylmorpholin-4-yl]-6-(morpholin-4-ylmethyl)pyrimidin-2-yl]phenyl]urea] the IC50 was 200 nM. C[C@H]1COCCN1c1cc(CNCCN(C)C)nc(-c2ccc(NC(=O)NC3CC3)cc2)n1 [Example 49g, 3-cyclopropyl-1-[4-[4-[(2-dimethylaminoethylamino)methyl]-6-[(3S)-3-methylmorpholin-4-yl]pyrimidin-2-yl]phenyl]urea] showed an IC50 of 87 nM. Compound C[C@H]1COCCN1c1cc(CN2CCCN(C)CC2)nc(-c2ccc(NC(=O)NC3CC3)cc2)n1 [Example 49h, 3-cyclopropyl-1-[4-[4-[(4-methyl-1,4-diazepan-1-yl)methyl]-6-[(3S)-3-methylmorpholin-4-yl]pyrimidin-2-yl]phenyl]urea] has an IC50 of 180 nM. Compound C[C@H]1COCCN1c1cc(CNC(C)(C)CO)nc(-c2ccc(NC(=O)NC3CC3)cc2)n1 [Example 49i, 3-cyclopropyl-1-[4-[4-[[(1-hydroxy-2-methyl-propan-2-yl)amino]methyl]-6-[(3S)-3-methylmorpholin-4-yl]pyrimidin-2-yl]phenyl]urea] has an IC50 of 16 nM. C[C@H]1COCCN1c1cc(CN2CC(O)C2)nc(-c2ccc(NC(=O)NC3CC3)cc2)n1 [Example 49k, 3-cyclopropyl-1-[4-[4-[(3-hydroxyazetidin-1-yl)methyl]-6-[(3S)-3-methylmorpholin-4-yl]pyrimidin-2-yl]phenyl]urea] was tested, and the IC50 was 14 nM. C[C@H]1COCCN1Cc1cc(N2CCOC[C@@H]2C)nc(-c2ccc(NC(=O)NC3CC3)cc2)n1 [Example 49l, 3-cyclopropyl-1-[4-[4-[(3S)-3-methylmorpholin-4-yl]-6-[[(3S)-3-methylmorpholin-4-yl]methyl]pyrimidin-2-yl]phenyl]urea] was tested, and the IC50 was 1600 nM.
